Laboratory results: patent publication US20240217963A1, “RECEPTOR-INTERACTING PROTEIN 1 INHIBITORS, PREPARATIONS, AND USES THEREOF” (SIRONAX LTD., priority 2021, published 2024)
pEC50: −log10 of the molar value.

Biological target: T1, RIP1 (Homo sapiens, UniProt Q13546)
T1 sequence (Q13546 1-671): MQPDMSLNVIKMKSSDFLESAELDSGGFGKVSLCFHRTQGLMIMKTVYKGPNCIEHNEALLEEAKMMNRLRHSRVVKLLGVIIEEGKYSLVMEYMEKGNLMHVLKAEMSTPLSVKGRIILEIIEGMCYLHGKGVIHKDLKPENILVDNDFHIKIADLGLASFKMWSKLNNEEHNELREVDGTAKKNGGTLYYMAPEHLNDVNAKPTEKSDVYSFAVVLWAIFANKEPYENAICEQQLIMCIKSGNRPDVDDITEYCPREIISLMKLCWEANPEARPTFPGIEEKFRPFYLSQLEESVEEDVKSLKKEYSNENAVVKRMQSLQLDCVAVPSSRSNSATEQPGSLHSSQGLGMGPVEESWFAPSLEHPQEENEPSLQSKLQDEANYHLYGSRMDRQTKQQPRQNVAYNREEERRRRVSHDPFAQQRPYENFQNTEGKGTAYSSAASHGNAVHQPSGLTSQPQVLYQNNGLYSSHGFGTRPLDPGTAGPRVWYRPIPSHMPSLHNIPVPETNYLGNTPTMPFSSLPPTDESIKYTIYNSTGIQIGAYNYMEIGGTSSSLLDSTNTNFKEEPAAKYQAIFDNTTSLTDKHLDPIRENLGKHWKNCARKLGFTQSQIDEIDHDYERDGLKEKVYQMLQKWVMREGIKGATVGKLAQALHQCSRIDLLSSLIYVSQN
Experiment: Cellular RIP1 inhibitory activity: HT-29 necroptosis (TNFα/SMAC mimetic/zVAD-FMK) CellTiter-Glo viability assay
Assay type: cell-based
Conditions: HT-29 cells, TNF-α 10 ng/ml + SMAC mimetic 6 μM + zVAD-FMK 10 μM, 20 hours, geometric mean, read-out: EC50 Values of in vitro Cellular RIP1 Inhibitory Activity
Method: Compounds 1-99 (denoted as Cmpd Nos. 1 through 99 in Table 2 below) of the disclosure were tested for binding and cellular RIP1 inhibitory activity following the experimental procedures described below. Cell Seeding • 1. HT-29 cells were checked every day to make sure that they were healthy and growing as expected. They were subjected to sub-culturing when they were approximately 80% confluent. • 2. The culture medium, McCOY's 5 A medium (Gibco, Cat No. 16600-082) with 10% fetal bovine serum or FBS (Gibco, Cat No. 10099-141C), was pre-warmed in a 37° C. water bath for at least 30 min. • 3. When the cells had reached a desired level of confluency of 80% in a T75 flask, the medium was aspirated, and the cells were washed with warm phosphate buffered saline or PBS two times. • 4. 2-3 ml fresh warm trypsin (Gibco, Cat No. 25200-056) solution was added to the washed cells. The flask with the cells was transferred to a 37° C. incubator. • 5. After 5 minutes, the side of the flask was tapped, and the flask was examined under a microscope for detachment of the cells to the flask. If necessary, the cells were kept in the incubator for an additional 5-10 minutes, with occasional tapping, until lifting was complete. • 6. The trypsin reaction was neutralized by transferring 6-9 ml cell culture medium to sterile 15 ml conical tubes, and by centrifuging the cell culture at 300×g for 7 minutes to pellet the cells (supernatant decanted). • 7. The cells were resuspended in fresh cell culture medium and the cell counting was performed using a hemocytometer. • 8. 100 μl of the resuspended cell culture medium containing ˜5,000 cells were transferred into each well of the sterile 96-well cell culture plate (Corning 3903) and cultured overnight at 37° C. with 5% CO2. Compound Titration and Treatment • 1. All test compounds were dissolved in DMSO (Dimethyl sulfoxide) to create a 20 mM stock. • 2. 3 μl of each compound 20 mM stock was mixed with 27 μl DMSO, and the compound solution was further diluted at a titration ratio of 1:3 (20 μl compound solution+40 μl DMSO) till the 10 points end. • 3. All culture medium was removed from assay plates filled with HT-29 cell cultures. […] 0.5 μL of the diluted compound solution was added to the corresponding 96-well assay plates. • 5. The assay plates were incubated for 20 hours at 37° C. with 5% CO2. Cell Viability Detection • 1. The CellTiter-Glo® Luminescent Cell Viability Assay was employed to detect the ATP levels of viable HT-29 cells. • 2. The CellTiter-Glo® buffer and the lyophilized substrate were equilibriated to room temperature prior to use. • 3. The CellTiter-Glo® substrate was resuspended with CellTiter-Glo® buffer, then mixed by gently vortexing to obtain a homogeneous solution. • 4. 20 μl the enzyme/substrate mixture was transferred by multi-channel pipetting into 96-well assay plates. • 5. The assay plates were placed on an orbital shaker and the contents were shaken for 3 minutes to induce cell lysis. • 6. The assay plates were incubated at room temperature for 10 minutes to stabilize the luminescent signal. • 7. The luminescence signals were read and recorded with EnVision. • 8. The geometric mean EC50 values were calculated from 10 points response dose with duplicates. In Table 2, activity is provided as follows: +++=0.1 nM≤EC50<100 nM; ++=100 nM≤EC50<1000 nM; +=1000 nM≤EC50<10000 nM.

SMILES | pEC50
Cc1cnn(C)c1-c1nc(N2CCC(C(=O)N(C)Cc3ccn(C)n3)CC2)ncc1F [Compound 81, 1-(4-(1,4-dimethyl-1H-pyrazol-5-yl)-5-fluoropyrimidin-2-yl)-N-methyl-N-((1-methyl-1H-pyrazol-3-yl)methyl)piperidine-4-carboxamide] | 7.00 to 10.00
Cc1nc(C)n(-c2nc(N3CCC(C(=O)N(O)Cc4cc(F)cc(F)c4)CC3)ncc2F)n1 [Compound 1, N-(3,5-difluorobenzyl)-1-(4-(3,5-dimethyl-1H-1,2,4-triazol-1-yl)-5-fluoropyrimidin-2-yl)-N-hydroxypiperidine-4-carboxamide] | 7.00 to 10.00
CCN(Cc1nc(C)cs1)C(=O)C1CCN(c2ncc(F)c(-c3c(C)cnn3C)n2)CC1 [Compound 72, 1-(4-(1,4-dimethyl-1H-pyrazol-5-yl)-5-fluoropyrimidin-2-yl)-N-ethyl-N-((4-methylthiazol-2-yl)methyl)piperidine-4-carboxamide] | 7.00 to 10.00
Cc1nc(CN(C)C(=O)C2CCN(c3ncc(F)c(-c4c(C)cnn4C)n3)CC2)c(C)s1 [Compound 92] | 6.00 to 7.00
CN(Cc1cc(F)cc(F)c1F)C(=O)C1CCN(c2ncc(F)c(-c3ncnn3C)n2)CC1 [Compound 68, 1-(5-fluoro-4-(1-methyl-1H-1,2,4-triazol-5-yl)pyrimidin-2-yl)-N-methyl-N-(2,3,5-trifluorobenzyl)piperidine-4-carboxamide] | 7.00 to 10.00
Cc1csc(CN(C)C(=O)C2CCN(c3ncc(F)c(-c4c(C)cnn4C)n3)CC2)n1 [Compound 71, 1-(4-(1,4-dimethyl-1H-pyrazol-5-yl)-5-fluoropyrimidin-2-yl)-N-methyl-N-((4-methylthiazol-2-yl)methyl)piperidine-4-carboxamide] | 7.00 to 10.00
Cc1cnn(C)c1-c1nc(N2CCC(C(=O)NCc3cc(F)cc(F)c3)CC2)ncc1F [Compound 62, N-(3,5-difluorobenzyl)-1-(4-(1,4-dimethyl-1H-pyrazol-5-yl)-5-fluoropyrimidin-2-yl)piperidine-4-carboxamide] | 7.00 to 10.00
Cc1cnn(C)c1-c1nc(N2CCC(C(=O)N(O)Cc3cncs3)CC2)ncc1F [Compound 16, 1-(4-(1,4-dimethyl-1H-pyrazol-5-yl)-5-fluoropyrimidin-2-yl)-N-hydroxy-N-(thiazol-5-ylmethyl)piperidine-4-carboxamide] | 7.00 to 10.00
Cc1nc(CNC(=O)C2CCN(c3ncc(F)c(-c4c(C)cnn4C)n3)CC2)c(C)s1 [Compound 56, 1-(4-(1,4-dimethyl-1H-pyrazol-5-yl)-5-fluoropyrimidin-2-yl)-N-((2,5-dimethylthiazol-4-yl)methyl)piperidine-4-carboxamide] | 7.00 to 10.00
[2H]C([2H])([2H])N(C(=O)C1CCN(c2ncc(F)c(-c3nnc(C)s3)n2)CC1)C([2H])([2H])c1cc(F)cc(F)c1F [Compound 97, 1-(5-fluoro-4-(5-methyl-1,3,4-thiadiazol-2-yl)pyrimidin-2-yl)-N-(methyl-d3)-N-((2,3,5-trifluorophenyl)methyl-d2)piperidine-4-carboxamide] | 7.00 to 10.00
Cc1cnn(C)c1-c1nc(N2CCC(C(=O)N(C)Cc3cscn3)CC2)ncc1F [Compound 93, 1-(4-(1,4-dimethyl-1H-pyrazol-5-yl)-5-fluoropyrimidin-2-yl)-N-methyl-N-(thiazol-4-ylmethyl) piperidine-4-carboxamide] | 7.00 to 10.00
Cc1cnn(C)c1-c1nc(N2CCC(C(=O)N(O)Cc3cc(F)cc(F)c3)CC2)ncc1F [Compound 4, N-(3,5-difluorobenzyl)-1-(4-(1,4-dimethyl-1H-pyrazol-5-yl)-5-fluoropyrimidin-2-yl)-N-hydroxypiperidine-4-carboxamide] | 7.00 to 10.00
Cc1cnn(C)c1-c1nc(N2CCC(C(=O)N(O)Cc3ccccc3)CC2)ncc1F [Compound 33, N-benzyl-1-(4-(1,4-dimethyl-1H-pyrazol-5-yl)-5-fluoropyrimidin-2-yl)-N-hydroxypiperidine-4-carboxamide] | 7.00 to 10.00
Cc1cnn(C)c1-c1nc(N2CCC(C(=O)NCc3nc(C)c(C)s3)CC2)ncc1F [Compound 49, 1-(4-(1,4-dimethyl-1H-pyrazol-5-yl)-5-fluoropyrimidin-2-yl)-N-((4,5-dimethylthiazol-2-yl)methyl)piperidine-4-carboxamide] | 6.00 to 7.00
Cc1cnn(C)c1-c1nc(N2CCC(C(=O)N[C@@H](CO)c3ccccc3)CC2)ncc1F [Compound 35, (R)-1-(4-(1,4-dimethyl-1H-pyrazol-5-yl)-5-fluoropyrimidin-2-yl)-N-(2-hydroxy-1-phenylethyl)piperidine-4-carboxamide] | 7.00 to 10.00
Cc1cnn(C)c1-c1nc(N2CCC(C(=O)N(C)Cc3nccs3)CC2)ncc1F [Compound 95, 1-(4-(1,4-dimethyl-1H-pyrazol-5-yl)-5-fluoropyrimidin-2-yl)-N-methyl-N-(thiazol-2-ylmethyl)piperidine-4-carboxamide] | 7.00 to 10.00
Cn1ncnc1-c1nc(N2CCC(C)(C(=O)N(O)Cc3cc(F)cc(F)c3)CC2)ncc1F [Compound 18, N-(3,5-difluorobenzyl)-1-(5-fluoro-4-(1-methyl-1H-1,2,4-triazol-5-yl)pyrimidin-2-yl)-N-hydroxy-4-methylpiperidine-4-carboxamide] | 7.00 to 10.00
Cn1ncnc1-c1nc(N2CCC(C(=O)NCc3cc(F)cc(F)c3F)CC2)ncc1F [Compound 21, 1-(5-fluoro-4-(1-methyl-1H-1,2,4-triazol-5-yl)pyrimidin-2-yl)-N-(2,3,5-trifluorobenzyl)piperidine-4-carboxamide] | 7.00 to 10.00
Cn1ncnc1-c1nc(N2CCC(F)(C(=O)N(O)Cc3cc(F)cc(F)c3)CC2)ncc1F [Compound 19, N-(3,5-difluorobenzyl)-4-fluoro-1-(5-fluoro-4-(1-methyl-1H-1,2,4-triazol-5-yl)pyrimidin-2-yl)-N-hydroxypiperidine-4-carboxamide] | 7.00 to 10.00
Cc1nc(C)c(CN(C)C(=O)C2CCN(c3ncc(F)c(-c4c(C)cnn4C)n3)CC2)s1 [Compound 69, 1-(4-(1,4-dimethyl-1H-pyrazol-5-yl)-5-fluoropyrimidin-2-yl)-N-((2,4-dimethylthiazol-5-yl)methyl)-N-methylpiperidine-4-carboxamide] | 6.00 to 7.00
[2H]C([2H])(NC(=O)C1CCN(c2ncc(F)c(-c3nnc(C)s3)n2)CC1)c1cc(F)cc(F)c1F [Compound 61, 1-(5-fluoro-4-(5-methyl-1,3,4-thiadiazol-2-yl)pyrimidin-2-yl)-N-((2,3,5-trifluorophenyl)methyl-d2)piperidine-4-carboxamide] | 7.00 to 10.00
Cc1cnn(C)c1-c1nc(N2CCC(C(=O)N(O)Cc3cc(F)cc(C#N)c3)CC2)ncc1F [Compound 32, N-(3-cyano-5-fluorobenzyl)-1-(4-(1,4-dimethyl-1H-pyrazol-5-yl)-5-fluoropyrimidin-2-yl)-N-hydroxypiperidine-4-carboxamide] | 7.00 to 10.00
